# From PubChem BioAssay (NCI)
#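 Briefly, cells in 96-well plates were exposed to five compound concentrations for 48 h, and endpoints were estimated by linear interpolation. At the GI50, growth is halved. TGI marks complete inhibition of growth.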
# What was measured:
# Assay in all cases: NCI anticancer screen, dose series, 48 h
# NCI-H226 lung = system: NCI-H226 lung
# RPMI-8226 leukemia = system: RPMI-8226 leukemia
# HCC-2998 colon = system: HCC-2998 colon
# NCI/ADR-RES ovarian = system: NCI/ADR-RES ovarian
# KM12 colon = system: KM12 colon
# SK-MEL-5 melanoma = system: SK-MEL-5 melanoma
# DU-145 prostate = system: DU-145 prostate
# OVCAR-5 ovarian = system: OVCAR-5 ovarian
# HS 578T breast = system: HS 578T breast
# ACHN renal = system: ACHN renal
# SNB-75 CNS = system: SNB-75 CNS
# SF-539 CNS = system: SF-539 CNS
# TK-10 renal = system: TK-10 renal
# SK-MEL-2 melanoma = system: SK-MEL-2 melanoma
# U251 CNS = system: U251 CNS
# A549 NSCLC = system: A549 NSCLC
# MOLT-4 leukemia = system: MOLT-4 leukemia
# A498 renal = system: A498 renal
# UACC-62 melanoma = system: UACC-62 melanoma
# PC-3 prostate = system: PC-3 prostate
# COLO 205 colon = system: COLO 205 colon
# MALME-3M melanoma = system: MALME-3M melanoma
# SN12C renal = system: SN12C renal
# UO-31 renal = system: UO-31 renal
# SK-MEL-28 melanoma = system: SK-MEL-28 melanoma
# OVCAR-8 ovarian = system: OVCAR-8 ovarian
# NCI-H23 lung = system: NCI-H23 lung
# SNB-19 CNS = system: SNB-19 CNS
# SW-620 colon = system: SW-620 colon
# M14 melanoma = system: M14 melanoma
# 786-0 renal = system: 786-0 renal
# OVCAR-4 ovarian = system: OVCAR-4 ovarian
# SK-OV-3 ovarian = system: SK-OV-3 ovarian
# BT-549 breast = system: BT-549 breast
# SF-295 CNS = system: SF-295 CNS
# OVCAR-3 ovarian = system: OVCAR-3 ovarian
# SF-268 CNS = system: SF-268 CNS
# HL-60(TB) leukemia = system: HL-60(TB) leukemia
# NCI-H460 lung = system: NCI-H460 lung
# K-562 leukemia = system: K-562 leukemia
# IGROV1 ovarian = system: IGROV1 ovarian
# HCT-116 colon = system: HCT-116 colon
# HOP-62 NSCLC = system: HOP-62 NSCLC
# LOX IMVI melanoma = system: LOX IMVI melanoma
# UACC-257 melanoma = system: UACC-257 melanoma
# CCRF-CEM leukemia = system: CCRF-CEM leukemia
# T-47D breast = system: T-47D breast
# MDA-MB-435 = system: MDA-MB-435
# RXF 393 renal = system: RXF 393 renal
# HT29 colon = system: HT29 colon
# HCT-15 colon = system: HCT-15 colon
# EKVX NSCLC = system: EKVX NSCLC
# HOP-92 NSCLC = system: HOP-92 NSCLC
# NCI-H522 lung = system: NCI-H522 lung
# SR leukemia = system: SR leukemia
# MDA-MB-231 breast = system: MDA-MB-231 breast
# CAKI-1 renal = system: CAKI-1 renal
# MCF7 breast = system: MCF7 breast
smiles,measurement,setting,value
N#Cc1cccc(Nc2ncc(-c3ccccc3)o2)c1,GI50,NCI-H226 lung,8.65 µM
same,TGI,NCI-H226 lung,> 25 µM
same,GI50,RPMI-8226 leukemia,> 25 µM
same,TGI,RPMI-8226 leukemia,> 25 µM
same,GI50,HCC-2998 colon,> 23.7 µM
same,TGI,HCC-2998 colon,> 25 µM
same,GI50,NCI/ADR-RES ovarian,19.2 µM
same,TGI,NCI/ADR-RES ovarian,> 25 µM
same,GI50,KM12 colon,8.18 µM
same,TGI,KM12 colon,> 25 µM
same,GI50,SK-MEL-5 melanoma,13 µM
same,TGI,SK-MEL-5 melanoma,> 25 µM
same,GI50,DU-145 prostate,16 µM
same,TGI,DU-145 prostate,> 25 µM
same,GI50,OVCAR-5 ovarian,16.4 µM
same,TGI,OVCAR-5 ovarian,> 25 µM
same,GI50,HS 578T breast,8.52 µM
same,TGI,HS 578T breast,> 25 µM
same,GI50,ACHN renal,8.4 µM
same,TGI,ACHN renal,> 25 µM
same,GI50,SNB-75 CNS,10.8 µM
same,TGI,SNB-75 CNS,> 22.6 µM
same,GI50,SF-539 CNS,10.3 µM
same,TGI,SF-539 CNS,> 25 µM
same,GI50,TK-10 renal,16.5 µM
same,TGI,TK-10 renal,> 25 µM
same,GI50,SK-MEL-2 melanoma,> 25 µM
same,TGI,SK-MEL-2 melanoma,> 25 µM
same,GI50,U251 CNS,10.6 µM
same,TGI,U251 CNS,> 25 µM
same,GI50,A549 NSCLC,11.7 µM
same,TGI,A549 NSCLC,> 25 µM
same,GI50,MOLT-4 leukemia,> 25 µM
same,TGI,MOLT-4 leukemia,> 25 µM
same,GI50,A498 renal,> 22.2 µM
same,TGI,A498 renal,> 25 µM
same,GI50,UACC-62 melanoma,13.1 µM
same,TGI,UACC-62 melanoma,> 25 µM
same,GI50,PC-3 prostate,15.1 µM
same,TGI,PC-3 prostate,> 25 µM
same,GI50,COLO 205 colon,14.8 µM
same,TGI,COLO 205 colon,> 25 µM
same,GI50,MALME-3M melanoma,> 25 µM
same,TGI,MALME-3M melanoma,> 25 µM
same,GI50,SN12C renal,24.2 µM
same,TGI,SN12C renal,> 25 µM
same,GI50,UO-31 renal,7.84 µM
same,TGI,UO-31 renal,> 25 µM
same,GI50,SK-MEL-28 melanoma,> 20.4 µM
same,TGI,SK-MEL-28 melanoma,> 25 µM
same,GI50,OVCAR-8 ovarian,16.7 µM
same,TGI,OVCAR-8 ovarian,> 25 µM
same,GI50,NCI-H23 lung,> 22.8 µM
same,TGI,NCI-H23 lung,> 25 µM
same,GI50,SNB-19 CNS,17.3 µM
same,TGI,SNB-19 CNS,> 25 µM
same,GI50,SW-620 colon,22.4 µM
same,TGI,SW-620 colon,> 25 µM
same,GI50,M14 melanoma,> 25 µM
same,TGI,M14 melanoma,> 25 µM
same,GI50,786-0 renal,12.9 µM
same,TGI,786-0 renal,> 25 µM
same,GI50,OVCAR-4 ovarian,10.9 µM
same,TGI,OVCAR-4 ovarian,> 25 µM
same,GI50,SK-OV-3 ovarian,8.4 µM
same,TGI,SK-OV-3 ovarian,19.6 µM
same,GI50,BT-549 breast,> 20.7 µM
same,TGI,BT-549 breast,> 25 µM
same,GI50,SF-295 CNS,9.99 µM
same,TGI,SF-295 CNS,> 25 µM
same,GI50,OVCAR-3 ovarian,8.71 µM
same,TGI,OVCAR-3 ovarian,> 25 µM
same,GI50,SF-268 CNS,17.3 µM
same,TGI,SF-268 CNS,> 25 µM
same,GI50,HL-60(TB) leukemia,11 µM
same,TGI,HL-60(TB) leukemia,> 25 µM
same,GI50,NCI-H460 lung,11.3 µM
same,TGI,NCI-H460 lung,> 25 µM
same,GI50,K-562 leukemia,> 25 µM
same,TGI,K-562 leukemia,> 25 µM
same,GI50,IGROV1 ovarian,11.7 µM
same,TGI,IGROV1 ovarian,> 25 µM
same,GI50,HCT-116 colon,9.02 µM
same,TGI,HCT-116 colon,> 25 µM
same,GI50,HOP-62 NSCLC,6.69 µM
same,TGI,HOP-62 NSCLC,> 17.8 µM
same,GI50,LOX IMVI melanoma,9.47 µM
same,TGI,LOX IMVI melanoma,> 25 µM
same,GI50,UACC-257 melanoma,> 25 µM
same,TGI,UACC-257 melanoma,> 25 µM
same,GI50,CCRF-CEM leukemia,20.8 µM
same,TGI,CCRF-CEM leukemia,> 25 µM
same,GI50,T-47D breast,11.7 µM
same,TGI,T-47D breast,> 25 µM
same,GI50,MDA-MB-435,> 25 µM
same,TGI,MDA-MB-435,> 25 µM
same,GI50,RXF 393 renal,5.55 µM
same,TGI,RXF 393 renal,15.8 µM
same,GI50,HT29 colon,> 25 µM
same,TGI,HT29 colon,> 25 µM
same,GI50,HCT-15 colon,16.8 µM
same,TGI,HCT-15 colon,> 25 µM
same,GI50,EKVX NSCLC,11 µM
same,TGI,EKVX NSCLC,> 25 µM
same,GI50,HOP-92 NSCLC,7.32 µM
same,TGI,HOP-92 NSCLC,> 25 µM
same,GI50,NCI-H522 lung,19.2 µM
same,TGI,NCI-H522 lung,> 25 µM
same,GI50,SR leukemia,11.8 µM
same,TGI,SR leukemia,> 25 µM
same,GI50,MDA-MB-231 breast,8.38 µM
same,TGI,MDA-MB-231 breast,> 25 µM
same,GI50,CAKI-1 renal,8.44 µM
same,TGI,CAKI-1 renal,> 25 µM
same,GI50,MCF7 breast,8.25 µM
same,TGI,MCF7 breast,> 25 µM
